Where a SMILES comes first, the peptide text is derived from it. [ ]: non-standard residue; d: D form. Tpi = O=C(O)[C@@H]1Cc2c([nH]c3ccccc23)CN1
Columns and labels:
Format in all cases: functional
Rattus norvegicus [1] = test: Tested for the effect on the wet thrombus weight at a dose of 5 umol/kg in male wistar anesthetized rat
SACC-LM = test: Tested for the effect of compound on the adhesion of high pulmonary metastatic SACC cell line SACC-LM and platelets at 5 mg/mL
Oryctolagus cuniculus [2] = species: Oryctolagus cuniculus; test: Tested in vitro for maximal rate of platelet aggregation induced by adenosine diphosphate (10 e5 mol/L) at a dose of 10 e6 mol/L in rabbit blood
Oryctolagus cuniculus [3] = species: Oryctolagus cuniculus; test: Tested in vitro for maximal rate of platelet aggregation induced by adenosine diphosphate (10 e5 mol/L) at a dose of 10 e7 mol/L in rabbit blood
Oryctolagus cuniculus [4] = species: Oryctolagus cuniculus; test: Tested in vitro for the maximal rate of platelet aggregation induced by platelet activating factor (10 e-7 mol/L) at a dose of 10 e5 mol/L in rabbit blood
Rattus norvegicus [5] = test: Tested for the effect on the dry thrombus weight at a dose of 5 uM/kg in male wistar anesthetized rat
Oryctolagus cuniculus [6] = species: Oryctolagus cuniculus; test: Tested in vitro for the maximal rate of platelet aggregation induced by platelet activating factor (10 e-7 mol/L) at a dose of 10 e6 mol/L in rabbit blood
Oryctolagus cuniculus [7] = species: Oryctolagus cuniculus; test: Tested in vitro for the maximal rate of platelet aggregation induced by platelet activating factor (10 e-7 mol/L) at a dose of 10 e7 mol/L in rabbit blood
Oryctolagus cuniculus [8] = species: Oryctolagus cuniculus; test: Tested in vitro for maximal rate of platelet aggregation induced by adenosine diphosphate (10 e5 mol/L) at a dose of 10 e5 mol/L in rabbit blood
Rattus norvegicus [9] = test: Tested for the effect on the dry thrombus weight at a dose of 5 umol/kg in male wistar anesthetized rat
Rattus norvegicus [10] = test: Tested for the effect on the wet thrombus weight at a dose of 5 uM/kg in male wistar anesthetized rat

| Compound | Thrombus weight (Rattus norvegicus [1]) [mg] | Activity (SACC-LM) [%] | Am (Oryctolagus cuniculus [2]) [%] | Am (Oryctolagus cuniculus [3]) [%] | Am (Oryctolagus cuniculus [4]) [%] | Thrombus weight (Rattus norvegicus [5]) [mg] | Am (Oryctolagus cuniculus [6]) [%] | Am (Oryctolagus cuniculus [7]) [%] | Am (Oryctolagus cuniculus [8]) [%] | Thrombus weight (Rattus norvegicus [9]) [mg] | Thrombus weight (Rattus norvegicus [10]) [mg] |
| --- | --- | --- | --- | --- | --- | --- | --- | --- | --- | --- | --- |
| O=C(O)[C@@H]1Cc2c([nH]c3ccccc23)CN1 [CYCLOMETHYLTRYPTOPHAN] | 42.99 | 45.6 | 45.16 | 53.66 | 35.66 | 7.17 | 50.18 | 55.15 | 24.6 | – | – |
| N=C(N)NCCC[C@H](NC(=O)[C@@H]1Cc2c([nH]c3ccccc23)CN1)C(=O)NCC(=O)N[C@@H](CC(=O)O)C(=O)N[C@@H](CO)C(=O)O (H-[Tpi]RGDS-OH) | 28.09 | 36.1 | 43.05 | 50.16 | 28.07 | – | 34.15 | 56.1 | 16.11 | 4.98 | – |
| CC(C)[C@H](NC(=O)[C@H](CC(=O)O)NC(=O)CNC(=O)[C@H](CCCN=C(N)N)NC(=O)[C@@H]1Cc2c([nH]c3ccccc23)CN1)C(=O)O (H-[Tpi]RGDV-OH) | 29.49 | 30.2 | 26.01 | 50.2 | 24.11 | – | 35.05 | 54.1 | 10.75 | 4.87 | – |
| NC(N)=NCCC[C@H](N)C(=O)NCC(=O)N[C@@H](CC(=O)O)C(=O)N[C@@H](Cc1ccccc1)C(=O)O (H-RGDF-OH) | 26.61 | 29.7 | 22.11 | 35.7 | 7.81 | – | 23.8 | 39.18 | 7.36 | 4.14 | – |
| N=C(N)NCCC[C@H](N)C(=O)NCC(=O)N[C@@H](CC(=O)O)C(=O)NC(CO)C(=O)O (single isomer, unassigned) | 43.61 | 35.8 | 40.54 | 52.85 | 21.16 | – | 36.15 | 57.2 | 14.22 | 7.68 | – |
| N=C(N)NCCC[C@H](NC(=O)[C@@H]1Cc2c([nH]c3ccccc23)CN1)C(=O)NCC(=O)N[C@@H](CC(=O)O)C(=O)N[C@@H](Cc1ccccc1)C(=O)O (H-[Tpi]RGDF-OH) | – | 28.1 | 21.05 | 36.05 | 20.05 | – | 25.54 | 36.05 | 9.01 | 2.76 | 22.3 |
| CC(C)[C@H](NC(=O)[C@H](CC(=O)O)NC(=O)CNC(=O)[C@@H](N)CCCN=C(N)N)C(=O)O (H-RGDV-OH) | 34.62 | 32.1 | 29.4 | 51.16 | 19.56 | – | 34.17 | 54.36 | 9.8 | 6.03 | – |
